Assay [1] concerns the target T1, STING AQ: His-TVMV-S-hSTING(155-341)-G230A-R293Q (Homo sapiens, UniProt Q86WV6, G230A/H232R/R293Q).
T1 construct: STING AQ: His-TVMV-S-hSTING(155-341)-G230A-R293Q
Description: STING HTRF Binding Assay, STING AQ. As to conditions: 20 nM His-tagged STING cytoplasmic domain, 40 nM fluorescein-labeled cGAMP analog probe, one hour; read-out: HTRF Binding Assays IC50 (μM) STING AQ. The method, then: (§1) A time resolved FRET-based competition binding assay was used to assess test article binding to STING WT and STING AQ. His-tagged STING cytoplasmic domain (WT or AQ) at a concentration of 20 nM was incubated with 2.5 nM Tb-labeled anti-His antibody, test compound, and fluorescein-labeled cGAMP analog probe (BioLog cat. no. C195) at a concentration of 200 nM (STING WT) or 40 nM (STING AQ) in PBS containing 0.005% Tween-20 and 0.1% BSA for one hour. Fluorescence at 495 nm and 520 nm was measured using an EnVision microplate reader to quantify FRET between Tb-labeled anti-His antibody and fluorescein-labeled probe. Background was defined as the signal obtained in the absence of STING protein, and background subtracted FRET ratios were normalized to the maximum signal obtained in the absence of test compound. These values were converted to a percent inhibition. Percent inhibition was determined for test compounds at 11 concentrations. The IC50, defined as the concentration of competing test compound needed to reduce specific binding of the probe by 50%, was calculated using the 4 parameter logistic equation to fit the data
On the technique in general: In TR-FRET formats the signal depends on donor and acceptor labels being close together.

The test system of assay [2] is NF-κB pathway in THP1-Dual STING reporter cells. Description: STING THP1 Reporter Assay, NF-κB pathway (SEAP). Format: cell-based, human. As to conditions: 100% = 100 μM cGAMP. An excerpt:
(§2) THP1-Dual™ cells were derived from the human THP-1 monocyte cell line by stable integration of two inducible reporter constructs. To this end, THP1-Dual™ cells allow the simultaneous study of the NF-κB pathway, by monitoring the activity of SEAP, and the IRF pathway by assessing the activity of a secreted luciferase (Lucia). Both reporter proteins are readily measurable in the cell culture supernatant when using QUANTI-Blue™, a SEAP detection reagent, and QUANTI-Luc™, a luciferase detection reagent.
(§3) THP1-Dual™ cells induce the activation of NF-κB in response to STING agonists. They also trigger the IRF pathway upon stimulation with STING agonists, such as cGAMP. Here, the THP-1-Dual cells were used to assess STING binders for function on the cellular level.
(§4) Serial dilutions of compounds in DMSO were added to low volume 384 well plates at 100 nl/well using an ECHO acoustic dispenser (Labcyte, model 550) to achieve final starting concentration of 100 μM in cell suspension. […] One column of the plate was reserved for treatment with cGAMP at 100 μM for 100% activation calculation and one column for no treatment (DMSO only) for baseline activation. Plates were then incubated in 37° C. incubator at 5% CO2 for 20 hours.
(§5) In the SEAP assay, 5 μl of 2× QuantiBlue (Invivogen, cat #Rep-qb2) is added to 384 well black plates seeded with THP1 cells and incubated at 37° C. for 2 hours. Plates were read on the Envision (Perkin Elmer) at 620 nm wavelength (OD620). In the luciferase assay, 5 μl of Quantiluc (Invivogen, Rep-qlc2) is added to white 384 well plates seeded with THP1 cells and read at 5 minutes on the Envision (Perkin Elmer) using a luminescence protocol (RLU). For both cell lines, 100% activation was determined by value (RLU) of THP-1 Dual STING cells stimulated with 100 μM cGAMP (Invivogen, cat #TLRL-NACGA23-5).

Assay [3] has as its target T2, STING WT: His-TVMV-S-hSTING(155-341)-H232R (Homo sapiens, UniProt Q86WV6, H232R).
T2 construct: STING WT: His-TVMV-S-hSTING(155-341)-H232R
Description: STING HTRF Binding Assay, STING WT. The conditions noted are these: 20 nM His-tagged STING cytoplasmic domain, 200 nM fluorescein-labeled cGAMP analog probe, one hour; read-out: HTRF Binding Assays IC50 (μM) STING WT. On the procedure: as §1

For assay [4], the system named is IRF pathway in THP1-Dual STING reporter cells. Put plainly: STING THP1 Reporter Assay, IRF pathway (secreted Lucia luciferase). It counts as cell-based, human. The conditions noted are these: 100% = 100 μM cGAMP.
Description: as §2, §3, §4, §5
(A reporter such as luciferase makes a cellular process visible.)

[5] abbreviates: THP1-Dual cells, 10% human plasma, 20 hours, SEAP, read-out: THP1 Reporter Assays EC50 (μM) NFkB.
The mark [6] stands for this setting: read-out: THP1 Reporter Assays EC50 (μM) IRF3, THP1-Dual cells, 10% human plasma, 20 hours, luciferase.
Setting [7] is: read-out: THP1 Reporter Assays EC50 (μM) NFkB, THP1-Dual cells, 10% human plasma, 20 hours, SEAP.
The mark [8] stands for this setting: Homo sapiens, THP1-Dual, 20 h, read-out: THP1 Reporter Assays EC50 (μM) NFkB, THP1-Dual cells, 10% human plasma, 20 hours, SEAP.
[9] abbreviates: Homo sapiens, THP1-Dual, 20 h, read-out: THP1 Reporter Assays EC50 (μM) IRF3, THP1-Dual cells, 10% human plasma, 20 hours, luciferase.
Setting [10] is: Homo sapiens, THP1-Dual, 20 h, THP1-Dual cells, 10% human plasma, 20 hours, SEAP, read-out: THP1 Reporter Assays EC50 (μM) NFkB.
Where [11] appears, read: Homo sapiens, THP1-Dual, 20 h, THP1-Dual cells, 10% human plasma, 20 hours, luciferase, read-out: THP1 Reporter Assays EC50 (μM) IRF3.

Data on 15 compounds can be found in US11660311B2, “Cyclic dinucleotides as anticancer agents” (priority 2017, dated 2023).

Like-named read-outs stand apart in the source and are kept apart here. A value given as a limit tells only on which side of the number the result lay.

T1 sequence (Q86WV6 with tags, fused parts or gaps G230A/H232R/R293Q): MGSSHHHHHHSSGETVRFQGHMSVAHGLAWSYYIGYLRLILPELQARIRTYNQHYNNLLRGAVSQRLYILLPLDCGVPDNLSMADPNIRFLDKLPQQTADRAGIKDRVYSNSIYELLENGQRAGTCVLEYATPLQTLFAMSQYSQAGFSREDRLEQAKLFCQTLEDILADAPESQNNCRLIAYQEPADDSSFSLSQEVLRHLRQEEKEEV
T2 sequence (Q86WV6 with tags, fused parts or gaps H232R): as the sequence (Q86WV6 with tags, fused parts or gaps G230A/H232R/R293Q) above, with A99G, Q162R counted along it

Take `Nc1ncnc2c1ncn2[C@@H]1O[C@@H]2COP(=O)(S)O[C@H]3[C@@H](F)[C@H](n4cnc5c4ncn4ncnc54)O[C@@H]3COP(=O)(S)O[C@H]2[C@H]1F` (single isomer, unassigned) [Example 12-4]: the values for the IC50 in assay [1] and in assay [3] were 0.005 µM and 0.002 µM, respectively. The concentration giving a half-maximal response (EC50) stood at 1.09 µM in assay [2] (setting [5]) and 0.06 µM in assay [4] (setting [6]).

As for `Nc1ncnc2c1ncn2[C@@H]1O[C@@H]2COP(=O)(S)O[C@H]3[C@@H](F)[C@H](n4cnc5c4ncn4ncnc54)O[C@@H]3COP(=O)(S)O[C@H]2[C@H]1F` (single isomer, unassigned) [Example 12-2], the IC50 in assay [1] was 0.002 µM; in assay [3], 0.01 µM. The EC50 in assay [2] (setting [5]) was 2.64 µM; in assay [4] (setting [6]) it was 0.2 µM.

As to `Nc1ncnc2c1ncn2[C@@H]1O[C@@H]2COP(=O)(S)O[C@H]3[C@@H](F)[C@H](n4cnc5c4ncn4ccnc54)O[C@@H]3COP(=O)(S)O[C@H]2[C@H]1F` (single isomer, unassigned) [Example 21-3], the IC50 in assay [1] stood at 0.01 µM; in assay [3], 0.02 µM. Also, the EC50 is 0.53 µM in assay [2] (setting [7]) and 0.14 µM in assay [4] (setting [6]).

As to `Nc1ncnc2c1ncn2[C@@H]1O[C@@H]2COP(=O)(O)O[C@H]3[C@@H](O)[C@H](n4cnc5c(=O)n6ccnc6[nH]c54)O[C@@H]3COP(=O)(O)O[C@H]2[C@H]1F` [Example 2, (1S,6R,8R,9R,10R,15R,17R,18R)-8-(6-amino-9H-purin-9-yl)-9-fluoro-3,12,18-trihydroxy-17-{9-oxo-3H,4H,9H-imidazo[1,2-a]purin-3-yl}-2,4,7,11,13,16-hexaoxa-3λ^5,12λ^5-diphosphatricyclo[13.3.0.0^6,10]octadecane-3,12-dione], the IC50 in assay [1] was 0.01 µM; in assay [3] it was 0.04 µM. Besides, the EC50 in assay [2] (setting [8]) amounted to 4.38 µM; in assay [4] (setting [9]), 2.36 µM.

As to `Nc1ncnc2c1ncn2[C@@H]1O[C@@H]2COP(=O)(S)O[C@H]3[C@@H](F)[C@H](n4cnc5c4ncn4ccnc54)O[C@@H]3COP(=O)(S)O[C@H]2[C@H]1F` (single isomer, unassigned) [Example 21-4], the IC50 in assay [1] and in assay [3] was 0.01 µM throughout. Further, the EC50 is 0.67 µM in assay [2] (setting [7]) and 0.28 µM in assay [4] (setting [6]).

As for `NC(=O)c1cccc2c1nnn2[C@@H]1O[C@@H]2COP(=O)(O)O[C@H]3[C@@H](F)[C@H](n4cnc5c(N)ncnc54)O[C@@H]3COP(=O)(S)O[C@H]2[C@H]1F` (single isomer, unassigned) [Example 8-2], the IC50 in assay [1] was 0.07 µM; in assay [3] it was 2.23 µM. Besides, the EC50 in assay [2] (setting [5]) is above 100 µM; in assay [4] (THP1-Dual cells, 10% human plasma, 20 hours, luciferase, read-out: THP1 Reporter Assays EC50 (μM) IRF3), above 100 µM.

As for `NC(=O)c1cccc2c1nnn2[C@@H]1O[C@@H]2COP(=O)(S)O[C@H]3[C@@H](F)[C@H](n4cnc5c(N)ncnc54)O[C@@H]3COP(=O)(S)O[C@H]2[C@H]1F` (single isomer, unassigned) [Example 4-2], the IC50 in assay [1] was 0.24 µM; in assay [3], 8.1 µM. The EC50 in assay [2] (setting [10]) and in assay [4] (setting [11]) was above 100 µM each time.

For `Nc1ncnc2c1ncn2[C@@H]1O[C@@H]2COP(=O)(S)O[C@H]3[C@@H](F)[C@H](n4cnc5c4ncn4ccnc54)O[C@@H]3COP(=O)(S)O[C@H]2[C@H]1F` (single isomer, unassigned) [Example 21-2], the IC50 was 0.01 µM in assay [1] and 0.02 µM in assay [3]. Besides, the EC50 in assay [2] (setting [7]) worked out at 0.56 µM; in assay [4] (setting [6]), 0.13 µM.

In the case of `Nc1ncnc2c1ncn2[C@@H]1O[C@@H]2COP(=O)(O)O[C@H]3[C@@H](F)[C@H](n4cnc5c4ncn4ccnc54)O[C@@H]3COP(=O)(O)O[C@H]2[C@H]1F` [Example 3], the IC50 was 0.02 µM in assay [1] and 0.04 µM in assay [3]. In addition, the EC50 in assay [2] (setting [10]) came to 24.4 µM; in assay [4] (setting [11]) it was 5.76 µM.

For `Nc1ncnc2c1ncn2[C@@H]1O[C@@H]2COP(=O)(S)O[C@H]3[C@@H](F)[C@H](n4cnc5c4ncn4ccnc54)O[C@@H]3COP(=O)(S)O[C@H]2[C@H]1F` (single isomer, unassigned) [Example 21-1], the values for the IC50 in assay [1] and in assay [3] were 0.01 µM and 0.32 µM, respectively. Besides, the EC50 in assay [2] (setting [7]) came to 34.6 µM; in assay [4] (setting [6]), 28.2 µM.

As for `Nc1ncnc2c1ncn2[C@@H]1O[C@@H]2COP(O)(=S)O[C@H]3[C@@H](F)[C@H](n4cnc5c4ncn4ncnc54)O[C@@H]3COP(O)(=S)O[C@H]2[C@H]1F` (single isomer, unassigned) [Example 12-1], the IC50 in assay [1] worked out at 0.04 µM; in assay [3], 0.56 µM. The EC50 amounted to 65.9 µM in assay [2] (setting [10]) and 8.2 µM in assay [4] (setting [9]).

`NC(=O)c1cc([C@@H]2O[C@@H]3COP(=O)(S)O[C@H]4[C@@H](F)[C@H](n5cnc6c(N)ncnc65)O[C@@H]4COP(=O)(S)O[C@H]3[C@H]2O)[nH]n1` (single isomer, unassigned) [Example 6-1]: the IC50 in assay [1] worked out at 1.32 µM; in assay [3], 5.58 µM. Besides, the EC50 in assay [2] (setting [10]) and in assay [4] (setting [11]) was above 100 µM throughout.

With `Nc1nc2c(ncn2[C@@H]2O[C@@H]3COP(=O)(O)O[C@H]4[C@@H](O)[C@H](n5cnc6c5ncn5ccnc65)O[C@@H]4COP(=O)(S)O[C@H]3[C@H]2O)c(=O)[nH]1` (stereo partly shown) [Example 16], the IC50 in assay [1] was determined as 5.65 µM; in assay [3], 96 µM. Also, the EC50 in assay [2] (setting [10]) and in assay [4] (setting [11]) was above 100 µM throughout.

`Nc1ncnc2c1ncn2[C@@H]1O[C@@H]2COP(=O)(O)O[C@H]3[C@@H](O)[C@H](n4cnc5c4ncn4ncnc54)O[C@@H]3COP(=O)(O)O[C@H]2[C@H]1F` [Example 11, (1S,6R,8R,9R,10R,15R,17R,18R)-8-(6-amino-9H-purin-9-yl)-9-fluoro-3,12,18-trihydroxy-17-{3H-[1,2,4]triazolo[3,2-f]purin-3-yl}-2,4,7,11,13,16-hexaoxa-3λ^5,12λ^5-diphosphatricyclo[13.3.0.0^6,10]octadecane-3,12-dione]: the values for the EC50 in assay [2] (setting [8]) and in assay [4] (setting [9]) were 16 µM and 8.35 µM, respectively. In assay [3], the IC50 is 0.23 µM.

Take `Nc1ncnc2c1ncn2[C@@H]1O[C@@H]2COP(=O)(S)O[C@H]3[C@@H](O)[C@H](n4cnc5c4ncn4ncnc54)O[C@@H]3COP(=O)(O)O[C@H]2[C@H]1F` (single isomer, unassigned) [Example 10-2]: the EC50 in assay [2] (setting [7]) was found to be 8.99 µM; in assay [4] (setting [6]), 3.69 µM. Further, the IC50 in assay [3] came out at 0.05 µM.

Usually IC50 stands for the concentration at which inhibition is half-maximal. A word on the EC50: it is the concentration at which the effect is half-maximal.
